The supplement of paper PMC12463676, “Small-molecule dissolution of stress granules by redox modulation benefits ALS models” (Nature Chemical Biology, 2025)

Tests used:
[1] = compound: NC(=O)CCCCC1CCSS1 [lipoamide]; test: thermal stability z-score vs DMSO; higher = more thermally stabilized by treatment; settings: HeLa, lipoamide concentration 100 µM
Experimental: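 Cellular thermal proteome profiling in HeLa cells. Cells were treated with 100 µM lipoamide for 1 h, with or without 1 mM arsenate for a further 1 h, then heated to ten temperatures (37-66.3 °C), and soluble protein was quantified by TMT mass spectrometry relative to 0.1% DMSO controls. The thermal stability score (sum of log2 fold changes minus the abundance score) was transformed to a z-score; mean of n = 3 experiments.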

[2] = compound: O=[As]([O-])(O)O.[K+] [potassium arsenate]; test: as above; settings: HeLa; arsenate concentration 1 mM
Experimental: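 Cellular thermal proteome profiling in HeLa cells treated with 1 mM arsenate for 1 h (DMSO pretreatment), heated to ten temperatures (37-66.3 °C). Soluble protein was quantified by TMT mass spectrometry relative to DMSO controls; the thermal stability score was transformed to a z-score; mean of n = 3 experiments.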

[3] = arsenate co-treatment: 1 mM arsenate 1 h
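Further: each temperature applied for 3 min, abundance score taken as mean log2 fold change at the two lowest temperatures, z-score obtained by mean subtraction and division by SD.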

Sequence of UniProt Q9NZJ7 (Q9NZJ7 whole entry): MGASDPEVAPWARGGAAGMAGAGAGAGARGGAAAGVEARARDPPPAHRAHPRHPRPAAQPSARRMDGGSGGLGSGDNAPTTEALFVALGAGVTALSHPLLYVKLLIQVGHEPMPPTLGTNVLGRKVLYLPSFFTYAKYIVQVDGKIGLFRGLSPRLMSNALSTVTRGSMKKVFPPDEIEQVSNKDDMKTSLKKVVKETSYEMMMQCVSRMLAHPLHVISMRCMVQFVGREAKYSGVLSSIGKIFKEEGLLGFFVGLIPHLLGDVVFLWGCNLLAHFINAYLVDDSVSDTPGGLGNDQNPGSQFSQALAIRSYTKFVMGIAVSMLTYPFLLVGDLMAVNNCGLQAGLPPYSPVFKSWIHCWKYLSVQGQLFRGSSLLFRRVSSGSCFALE
Sequence of UniProt Q8NCE2 (Q8NCE2 whole entry): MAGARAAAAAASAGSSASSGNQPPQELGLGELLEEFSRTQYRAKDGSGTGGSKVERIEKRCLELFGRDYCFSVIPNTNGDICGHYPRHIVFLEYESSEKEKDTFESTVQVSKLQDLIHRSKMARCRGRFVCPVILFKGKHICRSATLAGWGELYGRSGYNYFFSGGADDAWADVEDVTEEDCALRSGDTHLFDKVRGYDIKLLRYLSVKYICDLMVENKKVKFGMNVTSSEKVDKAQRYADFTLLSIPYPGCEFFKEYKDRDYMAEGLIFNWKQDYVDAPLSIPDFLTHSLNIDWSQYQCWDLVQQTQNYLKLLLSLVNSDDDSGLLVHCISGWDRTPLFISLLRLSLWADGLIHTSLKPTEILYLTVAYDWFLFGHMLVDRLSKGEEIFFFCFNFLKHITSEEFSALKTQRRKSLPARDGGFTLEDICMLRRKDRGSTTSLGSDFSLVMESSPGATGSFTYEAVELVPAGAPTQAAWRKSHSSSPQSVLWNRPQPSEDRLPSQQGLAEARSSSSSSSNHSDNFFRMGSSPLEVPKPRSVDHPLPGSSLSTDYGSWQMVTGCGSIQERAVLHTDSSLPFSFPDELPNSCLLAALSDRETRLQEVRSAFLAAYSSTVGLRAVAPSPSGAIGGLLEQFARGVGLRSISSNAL
Sequence of UniProt Q96E11 (Q96E11 whole entry): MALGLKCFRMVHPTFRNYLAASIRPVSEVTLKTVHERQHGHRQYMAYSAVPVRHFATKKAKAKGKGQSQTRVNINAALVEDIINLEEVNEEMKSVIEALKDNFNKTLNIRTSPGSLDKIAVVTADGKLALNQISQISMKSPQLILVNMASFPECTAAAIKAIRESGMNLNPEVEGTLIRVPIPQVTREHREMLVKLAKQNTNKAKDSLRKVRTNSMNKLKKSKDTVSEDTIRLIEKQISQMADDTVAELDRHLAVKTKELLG
Sequence of UniProt P11586 (P11586 whole entry): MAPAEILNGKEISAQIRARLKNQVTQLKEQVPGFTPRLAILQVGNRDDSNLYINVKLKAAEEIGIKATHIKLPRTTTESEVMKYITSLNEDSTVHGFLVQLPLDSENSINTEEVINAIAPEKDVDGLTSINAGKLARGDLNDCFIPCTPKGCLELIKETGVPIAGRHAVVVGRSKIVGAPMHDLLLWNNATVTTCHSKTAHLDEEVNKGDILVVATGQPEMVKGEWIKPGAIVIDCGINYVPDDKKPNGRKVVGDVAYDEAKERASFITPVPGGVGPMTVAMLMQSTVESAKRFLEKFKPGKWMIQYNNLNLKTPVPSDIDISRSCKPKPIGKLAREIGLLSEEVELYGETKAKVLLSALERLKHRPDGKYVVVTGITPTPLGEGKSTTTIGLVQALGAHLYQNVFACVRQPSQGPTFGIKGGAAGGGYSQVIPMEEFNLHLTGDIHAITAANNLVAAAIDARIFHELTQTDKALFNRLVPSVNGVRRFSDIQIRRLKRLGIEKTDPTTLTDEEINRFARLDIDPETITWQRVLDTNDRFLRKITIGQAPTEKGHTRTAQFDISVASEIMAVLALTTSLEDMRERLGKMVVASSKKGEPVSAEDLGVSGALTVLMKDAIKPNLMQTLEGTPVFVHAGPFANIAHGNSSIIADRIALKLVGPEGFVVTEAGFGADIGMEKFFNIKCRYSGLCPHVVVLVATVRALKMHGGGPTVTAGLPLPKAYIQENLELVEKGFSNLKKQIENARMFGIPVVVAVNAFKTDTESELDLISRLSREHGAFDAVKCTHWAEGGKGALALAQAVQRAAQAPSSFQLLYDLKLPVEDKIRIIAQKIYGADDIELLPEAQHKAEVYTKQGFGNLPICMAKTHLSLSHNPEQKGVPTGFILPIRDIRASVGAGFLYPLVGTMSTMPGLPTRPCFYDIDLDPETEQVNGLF
Sequence of UniProt Q86UE4 (Q86UE4 whole entry): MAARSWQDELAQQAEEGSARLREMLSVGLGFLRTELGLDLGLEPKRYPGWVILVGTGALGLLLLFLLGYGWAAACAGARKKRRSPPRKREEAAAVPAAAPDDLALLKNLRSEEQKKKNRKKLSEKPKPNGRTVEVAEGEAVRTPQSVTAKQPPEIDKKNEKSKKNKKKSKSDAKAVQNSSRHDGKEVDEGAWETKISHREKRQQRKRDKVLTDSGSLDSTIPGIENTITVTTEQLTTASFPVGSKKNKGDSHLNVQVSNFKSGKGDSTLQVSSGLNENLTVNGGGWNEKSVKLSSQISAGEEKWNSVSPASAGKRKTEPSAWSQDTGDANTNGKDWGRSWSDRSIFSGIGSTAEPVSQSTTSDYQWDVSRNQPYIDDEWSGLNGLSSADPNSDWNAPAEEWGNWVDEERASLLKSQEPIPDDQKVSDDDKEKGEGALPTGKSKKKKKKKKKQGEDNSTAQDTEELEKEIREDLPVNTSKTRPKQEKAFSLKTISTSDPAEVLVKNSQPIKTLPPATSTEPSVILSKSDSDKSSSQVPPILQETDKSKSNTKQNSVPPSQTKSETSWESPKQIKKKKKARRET
Sequence of UniProt Q15800 (Q15800 whole entry): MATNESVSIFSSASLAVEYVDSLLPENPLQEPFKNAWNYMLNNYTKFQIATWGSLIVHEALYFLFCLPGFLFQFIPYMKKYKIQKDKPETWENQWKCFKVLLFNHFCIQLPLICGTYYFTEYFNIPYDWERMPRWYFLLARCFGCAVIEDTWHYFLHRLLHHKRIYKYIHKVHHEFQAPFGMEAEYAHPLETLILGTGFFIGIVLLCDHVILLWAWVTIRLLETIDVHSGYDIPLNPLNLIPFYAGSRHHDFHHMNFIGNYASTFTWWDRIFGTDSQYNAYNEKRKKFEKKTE
Sequence of UniProt Q15390 (Q15390 whole entry): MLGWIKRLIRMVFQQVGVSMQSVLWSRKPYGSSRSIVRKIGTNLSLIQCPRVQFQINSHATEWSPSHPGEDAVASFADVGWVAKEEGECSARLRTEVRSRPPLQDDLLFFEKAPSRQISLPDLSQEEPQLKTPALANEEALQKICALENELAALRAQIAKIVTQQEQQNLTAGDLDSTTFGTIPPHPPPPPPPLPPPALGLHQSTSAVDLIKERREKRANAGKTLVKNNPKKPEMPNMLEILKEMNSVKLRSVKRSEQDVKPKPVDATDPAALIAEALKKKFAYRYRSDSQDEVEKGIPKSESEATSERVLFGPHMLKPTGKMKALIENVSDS
Sequence of UniProt Q96E29 (Q96E29 whole entry): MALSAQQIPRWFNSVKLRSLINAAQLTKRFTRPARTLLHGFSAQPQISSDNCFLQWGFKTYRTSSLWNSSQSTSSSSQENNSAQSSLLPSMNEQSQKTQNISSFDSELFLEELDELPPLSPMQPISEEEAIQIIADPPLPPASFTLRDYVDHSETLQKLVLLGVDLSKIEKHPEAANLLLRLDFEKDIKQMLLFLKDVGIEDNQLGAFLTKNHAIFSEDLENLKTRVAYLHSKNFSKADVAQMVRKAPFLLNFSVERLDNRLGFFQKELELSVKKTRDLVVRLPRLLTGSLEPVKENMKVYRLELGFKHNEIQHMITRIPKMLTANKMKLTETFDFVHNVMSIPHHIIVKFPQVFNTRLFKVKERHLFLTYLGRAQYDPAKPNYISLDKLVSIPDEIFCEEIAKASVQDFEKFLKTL
Sequence of UniProt Q9HD23 (Q9HD23 whole entry): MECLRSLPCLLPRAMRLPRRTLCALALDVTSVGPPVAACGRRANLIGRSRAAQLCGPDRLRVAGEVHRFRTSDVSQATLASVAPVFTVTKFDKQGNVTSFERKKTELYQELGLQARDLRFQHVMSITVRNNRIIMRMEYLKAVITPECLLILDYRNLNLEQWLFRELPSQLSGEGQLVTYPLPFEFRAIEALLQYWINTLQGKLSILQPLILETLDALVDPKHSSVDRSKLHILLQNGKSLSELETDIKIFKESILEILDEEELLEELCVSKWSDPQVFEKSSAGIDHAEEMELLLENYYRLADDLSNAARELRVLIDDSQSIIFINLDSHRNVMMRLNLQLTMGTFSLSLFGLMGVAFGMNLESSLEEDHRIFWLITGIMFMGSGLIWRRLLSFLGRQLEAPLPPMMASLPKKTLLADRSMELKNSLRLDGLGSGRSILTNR
Sequence of UniProt Q13614 (Q13614 whole entry): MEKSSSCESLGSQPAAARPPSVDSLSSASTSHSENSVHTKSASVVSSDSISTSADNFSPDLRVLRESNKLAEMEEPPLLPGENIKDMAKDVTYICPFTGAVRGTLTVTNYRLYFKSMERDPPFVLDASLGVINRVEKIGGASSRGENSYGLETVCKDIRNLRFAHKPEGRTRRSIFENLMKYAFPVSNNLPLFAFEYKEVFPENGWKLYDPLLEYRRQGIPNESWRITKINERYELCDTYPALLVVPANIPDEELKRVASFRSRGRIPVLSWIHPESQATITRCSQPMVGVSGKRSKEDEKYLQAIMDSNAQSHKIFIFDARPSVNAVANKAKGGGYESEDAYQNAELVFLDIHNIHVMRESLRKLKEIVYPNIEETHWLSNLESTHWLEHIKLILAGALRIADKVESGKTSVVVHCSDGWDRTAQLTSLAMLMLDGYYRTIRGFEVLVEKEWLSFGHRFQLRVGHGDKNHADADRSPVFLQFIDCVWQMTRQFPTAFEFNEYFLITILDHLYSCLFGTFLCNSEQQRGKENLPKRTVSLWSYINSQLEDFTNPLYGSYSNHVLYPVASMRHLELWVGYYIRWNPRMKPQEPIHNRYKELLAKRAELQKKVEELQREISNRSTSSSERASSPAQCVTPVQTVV

Row | Target | thermal stability z-score [1, 3] | thermal stability z-score ([1]; arsenate co-treatment: none) | thermal stability z-score [2]
1 | MRPS2 (UniProt Q9Y399) | 0.15 | 0.188 | 0.591
2 | MRPS5 (UniProt P82675) | -0.158 | 0.0282 | 0.0198
3 | MRPS6 (UniProt P82932) | -0.216 | -0.13 | -0.516
4 | MRPS7 (UniProt Q9Y2R9) | -1.12 | -0.496 | 0.102
5 | MRPS9 (UniProt P82933) | 0.316 | 0.203 | 0.195
6 | MRPS10 (UniProt P82664) | -0.41 | -0.358 | -0.309
7 | MRPS11 (UniProt P82912) | 0.302 | -0.354 | 0.34
8 | MRPS12 (UniProt O15235) | -0.367 | 0.0698 | 0.233
9 | MRPS14 (UniProt O60783) | -0.722 | -0.574 | -0.644
10 | MRPS15 (UniProt P82914) | 0.673 | 0.571 | 0.555
11 | MRPS16 (UniProt Q9Y3D3) | -0.314 | -0.201 | 0.0354
12 | MRPS18A (UniProt Q9NVS2) | -0.573 | -0.402 | 0.196
13 | MRPS18B (UniProt Q9Y676) | 0.319 | 0.013 | 0.102
14 | MRPS21 (UniProt P82921) | -0.28 | -0.78 | 1.03
15 | MRPS22 (UniProt P82650) | -0.329 | 0.295 | -0.109
16 | MRPS23 (UniProt Q9Y3D9) | -0.268 | 0.352 | 0.342
17 | MRPS24 (UniProt Q96EL2) | -0.239 | -0.0199 | -0.497
18 | MRPS25 (UniProt P82663) | 0.0295 | 0.0583 | 0.445
19 | MRPS26 (UniProt Q9BYN8) | 0.609 | 0.375 | 0.123
20 | MRPS27 (UniProt Q92552) | -0.204 | -0.193 | 0.189
21 | MRPS28 (UniProt Q9Y2Q9) | 0.366 | 0.352 | -0.842
22 | MRPS30 (UniProt Q9NP92) | -0.185 | -0.539 | -0.147
23 | MRPS31 (UniProt Q92665) | -0.961 | 0.411 | -0.0848
24 | MRPS33 (UniProt Q9Y291) | 0.0616 | 0.0342 | 0.00906

Row | Target | thermal stability z-score [1, 3] | thermal stability z-score ([1]; arsenate co-treatment: none) | thermal stability z-score [2]
25 | MRPS34 (UniProt P82930) | -0.835 | -0.044 | 0.427
26 | MRPS35 (UniProt P82673) | -0.663 | -0.362 | -0.0913
27 | MRPS36 (UniProt P82909) | 0.32 | 0.0105 | 0.55
28 | MRRF (UniProt Q96E11) | 0.298 | 0.823 | 0.97
29 | MRS2 (UniProt Q9HD23) | 0.937 | -0.861 | -1.27
30 | MRTO4 (UniProt Q9UKD2) | 0.246 | 0.308 | 0.036
31 | MSH2 (UniProt P43246) | -0.271 | -0.178 | -0.565
32 | MSH3 (UniProt P20585) | -0.0133 | 0.43 | -0.95
33 | MSH6 (UniProt P52701) | 0.0377 | 0.218 | -0.142
34 | MSI2 (UniProt Q96DH6) | 0.43 | 0.136 | 0.082
35 | MSLN (UniProt Q13421) | -0.583 | -0.696 | -2.44
36 | MSMO1 (UniProt Q15800) | -1.28 | -1.47 | 0.343
37 | MSN (UniProt P26038) | 0.727 | 0.377 | -0.891
38 | MSRB3 (UniProt Q8IXL7) | 0.866 | 0.887 | 0.269
39 | MST1R (UniProt Q04912) | -0.0878 | 0.0193 | -0.0232
40 | MSTO1 (UniProt Q9BUK6) | 0.101 | -0.0527 | -0.742
41 | MT (UniProt Q8IVS2) | -0.281 | -0.555 | -0.404
42 | MTA1 (UniProt Q13330) | 0.06 | 0.414 | -1.05
43 | MTA2 (UniProt O94776) | 0.669 | 0.591 | -0.245
44 | MTA3 (UniProt Q9BTC8) | 0.106 | 0.129 | -0.13
45 | MTAP (UniProt Q13126) | 0.145 | -1.41 | -1.77
46 | MTCH1 (UniProt Q9NZJ7) | -0.143 | -0.0871 | 0.404
47 | MTCH2 (UniProt Q9Y6C9) | -0.0451 | 0.12 | 0.688
48 | MTCL1 (UniProt Q9Y4B5) | -0.242 | 0.0775 | -1.54

Row | Target | thermal stability z-score [1, 3] | thermal stability z-score ([1]; arsenate co-treatment: none) | thermal stability z-score [2]
49 | MTDH (UniProt Q86UE4) | -0.531 | -0.503 | -1.35
50 | MTERF3 (UniProt Q96E29) | -0.371 | 0.034 | 0.564
51 | MTERF4 (UniProt Q7Z6M4) | -0.0828 | 0.0195 | -0.0404
52 | MTFR1 (UniProt Q15390) | -0.301 | 0.52 | 0.165
53 | MTG1 (UniProt Q9BT17) | 0.0673 | 0.0916 | 0.195
54 | MTG2 (UniProt Q9H4K7) | -0.0209 | 0.00401 | 0.127
55 | MTHFD1 (UniProt P11586) | 0.565 | 0.406 | -0.927
56 | MTHFD1L (UniProt Q6UB35) | -0.786 | -0.399 | -0.123
57 | MTHFD2 (UniProt P13995) | -1.43 | 0.0012 | 0.474
58 | MTHFS (UniProt P49914) | -0.574 | 0.036 | -0.488
59 | MTIF2 (UniProt P46199) | -0.77 | -1.59 | -0.789
60 | MTIF3 (UniProt Q9H2K0) | 0.621 | 0.197 | 0.55
61 | MTM1 (UniProt Q13496) | 0.198 | 0.0354 | -0.804
62 | MTMR1 (UniProt Q13613) | -0.545 | -0.803 | -1.27
63 | MTMR2 (UniProt Q13614) | 0.88 | -0.108 | -0.555
64 | MTMR3 (UniProt Q13615) | -0.301 | -0.594 | -1.04
65 | MTMR6 (UniProt Q9Y217) | 0.0538 | 0.0997 | -0.39
66 | MTMR9 (UniProt Q96QG7) | -0.0303 | 1.35 | -0.12
67 | MTMR10 (UniProt Q9NXD2) | -0.108 | 0.0107 | -0.188
68 | MTMR12 (UniProt Q9C0I1) | 0.611 | -0.0556 | -0.0618
69 | MTMR14 (UniProt Q8NCE2) | -1.39 | -0.656 | -0.829
70 | MTO1 (UniProt Q9Y2Z2) | 0.544 | 0.263 | 1.97
71 | MTOR (UniProt P42345) | 0.00431 | 0.137 | 0.0121
